Data taken from patent US20110207751A1, “HETEROCYCLIC COMPOUNDS AND USES AS ANTICANCER AGENTS” (priority 2010, published 2011).
Where a name gives a salt, the structure may show the parent alone. Read-outs that look alike come from different tables or passages of the source.

How the values were obtained:
[1] = Body weight and animal number of carrier mice, A549 xenograft test; assay type: in vivo, BALB/c immunodeficient nude mice
Source text: (§1) To evaluate the in vivo anticancer efficacy of COMPOUND O, A549 human non-small cell lung cancer xenograft models in immunodeficient nude mice was used. The cell line and mice were maintained in the Pharmacology Lab of ACEA Bio (Hangzhou) CO., Ltd. The BALB/c immunodeficient nude mice were purchased from Shanghai SLAC Laboratory Animal, certification number: SCXKA (Shanghai) 2007-0005. The mouse weight was between 21±1 g. Only female mice were used in this study. The numbers of animals tested were as follow: 7-8 for each dose group, 6 for positive control group and 7 for negative control group.
(§2) Test Control. For negative control, each mouse was administered orally with the solvent only having the same volume and same concentration as those used in COMPOUND O test, 120 mg/kg once every other day (qod) for 25 days. For positive control, an oral anticancer compound, Etoposide was administered orally at 30 mg/kg qod for 25 days.
(§3) Preparation an Administration of Test Compounds. COMPOUND O was dissolved in 25% phospholipid (S75) and 75% polyvinylpyrrolidone (PL-PVP) then further diluted to 8 mg/ml in 0.9% NaCl aqueous solution. Each mouse was administered orally with the compound solution. Different dosages of COMPOUND O (120 mg/kg qod and 160 mg/kg q2*2 (dosing for 2 consecutive days then off for 2 consecutive days) were used in the study.
(§4) All used materials including animal food, animal cage, supporting materials and apparatus contacted by animals, were high-pressure sterilized. Nude mice were maintained in laminar flow shelves under SPF condition. After tumor transplantation, mouse weight and tumor size in each compound dosage group were dynamically monitored and plotted. The tumor size was determined by measuring the major axis (a) and minor axis (b) of the tumor, and tumor volume was calculated according to the formula (2) in Example 1.

[2] = system: H2347 cells (human non-small cell lung cancer cell line); test: Inhibition of cell proliferation, xCelligence cell index; assay type: cell-based; conditions: NCI-H2347, 72 hr post compound treatment, read-out: calculated IC50
Source text: The biological activity of compounds disclosed herein was monitored and profiled using the Real-Time Cell Electronic Sensing (RT-CES®) system from ACEA Biosciences, Inc. The RT-CES system utilizes cell-substrate impedance technology to monitor cellular behavior inside tissue culture wells in a microtiter plate format. The technology features in the integration of molecular and cell biology with microelectronics and is based on the electronic detection of biological assay process. […]
For measurement of cell-substrate or cell-electrode impedance using RT-CES technology, microelectrodes having appropriate geometries are fabricated onto the bottom surfaces of microtiter plate or similar device, facing into the wells. […] When there are changes to the biological status of the cells analogue electronic readout signals are measured automatically and in real time, and are converted to digital signals for processing and for analysis. In a RT-CES system, a cell index (arbitrary representation of change in impedance) is automatically derived and provided based on measured electrode impedance values. […]
To quantify cell status based on the measured cell-electrode impedance, a parameter termed Cell Index is derived. Cell Index is a quantitative measure of the status of the cells in an electrode-containing well. […]

[3] = system: A549 human non-small cell lung cancer xenograft; test: In vivo antitumor efficacy, A549 xenograft; parameters: species or system BALB/c immunodeficient nude mice
Source text: as §1, §2, §3
Preparation of tumor cells for transplantation and determination of compound efficacy. To prepare the cancer cells for A549 human non-small cell lung cancer xenograft model, the log phase growing cell in the flask were trypsinized and cells were re-suspended in PBS (pH 7.2) at 2.5×10^7 cells/ml. The cell suspension (5×10^6 cells) was subcutaneously injected into the auxiliary region (right-side) of each mouse. After the inoculated cancer cells grew to a tumor of certain size (50-60 mm^3) in the nude mice (about 15 days post inoculation), the mice were randomized into different dosing groups and subjected to compound treatment. Between 3-4 weeks after the first dosing, mice were sacrificed and the transplanted tumors were removed from experimental mice. Each removed solid tumor was weighed; the tumor inhibition rate in each dosage group was calculated according to equation (1) in Example 1.
as §4

[4] = system: KB200 cells over-expressing multiple drug resistant (MDR) gene; test: Inhibition of cell proliferation, xCelligence cell index; assay type: cell-based; conditions: Homo sapiens
Source text: For measurement of cell-substrate or cell-electrode impedance using RT-CES technology, microelectrodes having appropriate geometries are fabricated onto the bottom surfaces of microtiter plate or similar device, facing into the wells. Cells are introduced into the wells of the devices, and make contact to and attach to the electrode surfaces. The presence, absence or change of properties of cells affects the electronic and ionic passage on the electrode sensor surfaces. Measuring the impedance between or among electrodes provides important information about biological status of cells present on the sensors. When there are changes to the biological status of the cells analogue electronic readout signals are measured automatically and in real time, and are converted to digital signals for processing and for analysis. In a RT-CES system, a cell index (arbitrary representation of change in impedance) is automatically derived and provided based on measured electrode impedance values. The cell index obtained for a given well reflects: 1) how many cells are attached to the electrode surfaces in this well; 2) how well cells are attached to the electrode surfaces in this well. Thus, the more the cells of same type in similar physiological conditions attach the electrode surfaces, the larger the cell index. And, the better the cells attach to the electrode surfaces (e.g., the cells spread-out more to have larger contact areas, or the cells attach tighter to electrode surfaces), the larger the cell index.
To quantify cell status based on the measured cell-electrode impedance, a parameter termed Cell Index is derived. Cell Index is a quantitative measure of the status of the cells in an electrode-containing well. Under the same physiological conditions, more cells attached on to the electrodes leads to larger cell-electrode resistance value, leading to a larger value for Cell Index. Furthermore, for the same number of cells present in the well, a change in the cell status such as morphology will lead to a change in the Cell Index. […]
The efficacy of these compounds was also tested against KB200 cell over-expressing multiple drug resistant (MDR) gene. […] The cell status was monitored prior to and after the compound addition using xCelligence system (Roche). […]

[5] = 72 hr post compound treatment, read-out: calculated IC50

Q: With `CCc1ccc(Nc2nc(-c3c(C)nc4sccn34)cs2)cc1` [COMPOUND O, 2-(4-ethylphenyl)amino-4-(6-methylimidazo[2,1-b]thiazol-5-yl)-thiazole monohydrobromide] as the molecule, how does the “Animal weight (g) Beginning” value ([1]; 120 mg/kg ig × 14 qod) read?
A: Its value is 20.77 g.

Q: What about the “Animal weight (g) end” value ([1]; 120 mg/kg ig × 14 qod) of the same molecule?
A: The value was 16.94 g.

Q: And the “Body weight of mice (g) 1 day” value ([1]; 120 mg/kg ig × 14 qod)?
A: Its value is 20.77 ± 0.68 g.

Q: What about the “Body weight of mice (g) 4 day” value ([1]; 120 mg/kg ig × 14 qod) of the same molecule?
A: Its value is 20.27 ± 0.83 g.

Q: What about the “Body weight of mice (g) 8 day” value ([1]; 120 mg/kg ig × 14 qod) of the same molecule?
A: The value was 19.57 ± 1.09 g.

Q: And the “Body weight of mice (g) 11 day” value ([1]; 120 mg/kg ig × 14 qod)?
A: The value was 18.20 ± 0.59 g.

Q: What about the “Body weight of mice (g) 15 day” value ([1]; 120 mg/kg ig × 14 qod) of the same molecule?
A: The value was 17.90 ± 0.61 g.

Q: What about the “Body weight of mice (g) 18 day” value ([1]; 120 mg/kg ig × 14 qod) of the same molecule?
A: The value was 17.90 ± 1.09 g.

Q: And the “Body weight of mice (g) 22 day” value ([1]; 120 mg/kg ig × 14 qod)?
A: Its value is 17.21 ± 1.20 g.

Q: And the “Body weight of mice (g) 25 day” value ([1]; 120 mg/kg ig × 14 qod)?
A: Its value is 17.00 ± 1.29 g.

Q: What about the “Animal No. end” value ([1]; 120 mg/kg ig × 14 qod, 7 at beginning) of the same molecule?
A: Its value is 7/7.

Q: What about the “Animal weight (g) Beginning” value ([1]; 160 mg/kg ig × 11 q2*2) of the same molecule?
A: The value was 21.69 g.

Q: What about the “Animal weight (g) end” value ([1]; 160 mg/kg ig × 11 q2*2) of the same molecule?
A: Its value is 17.97 g.

Q: What about the “Body weight of mice (g) 1 day” value ([1]; 160 mg/kg ig × 11 q2*2) of the same molecule?
A: The value was 21.69 ± 0.66 g.

Q: What about the “Body weight of mice (g) 4 day” value ([1]; 160 mg/kg ig × 11 q2*2) of the same molecule?
A: Its value is 21.20 ± 0.79 g.

Q: What about the “Body weight of mice (g) 8 day” value ([1]; 160 mg/kg ig × 11 q2*2) of the same molecule?
A: Its value is 19.00 ± 1.48 g.

Q: What about the “Body weight of mice (g) 11 day” value ([1]; 160 mg/kg ig × 11 q2*2) of the same molecule?
A: Its value is 17.78 ± 2.11 g.

Q: And the “Body weight of mice (g) 15 day” value ([1]; 160 mg/kg ig × 11 q2*2)?
A: The value was 17.43 ± 1.86 g.

Q: What about the “Body weight of mice (g) 18 day” value ([1]; 160 mg/kg ig × 11 q2*2) of the same molecule?
A: The value was 18.43 ± 0.90 g.

Q: What about the “Body weight of mice (g) 22 day” value ([1]; 160 mg/kg ig × 11 q2*2) of the same molecule?
A: Its value is 18.70 ± 1.04 g.

Q: What about the “Body weight of mice (g) 25 day” value ([1]; 160 mg/kg ig × 11 q2*2) of the same molecule?
A: The value was 17.97 ± 0.93 g.

Q: And the “Animal No. end” value ([1]; 160 mg/kg ig × 11 q2*2, 8 at beginning)?
A: The value was 8/3.

Q: What about the IC50 [2] of the same molecule?
A: Its IC50 is 1.76 nM.

Q: What about the “TV inhibition rate % T/C” value ([3]; 120 mg/kg ig × 14 qod) of the same molecule?
A: Its value is 37.5%.

Q: And the “Tumor volume (mm^3) End” value ([3]; 120 mg/kg ig × 14 qod)?
A: The value was 244 ± 105 mm^3.

Q: What about the “Tumor volume (mm^3) Start” value ([3]; 120 mg/kg ig × 14 qod) of the same molecule?
A: Its value is 53.31 ± 24.5 mm^3.

Q: What about the “Tumor weight (g) x ± SD” value ([3]; 120 mg/kg ig × 14 qod) of the same molecule?
A: The value was 0.25 ± 0.08 g.

Q: What about the “Tumor inhibition rate %” value ([3]; 120 mg/kg ig × 14 qod, by tumor weight) of the same molecule?
A: Its value is 67.8%.

Q: What about the “TV inhibition rate % T/C” value ([3]; 160 mg/kg ig × 11 q2*2) of the same molecule?
A: The value was 47.9%.

Q: What about the “Tumor volume (mm^3) End” value ([3]; 160 mg/kg ig × 11 q2*2) of the same molecule?
A: Its value is 265 ± 135 mm^3.

Q: And the “Tumor volume (mm^3) Start” value ([3]; 160 mg/kg ig × 11 q2*2)?
A: Its value is 45.25 ± 15.9 mm^3.

Q: What about the “Tumor weight (g) x ± SD” value ([3]; 160 mg/kg ig × 11 q2*2) of the same molecule?
A: Its value is 0.29 ± 0.11 g.

Q: And the “Tumor inhibition rate %” value ([3]; 160 mg/kg ig × 11 q2*2, by tumor weight)?
A: Its value is 62.5%.

Q: And the IC50 [4, 5]?
A: Its IC50 is 9.84 nM.

Q: Which results are given for `COc1cc([C@@H]2c3cc4c(cc3[C@@H](O[C@@H]3O[C@@H]5CO[C@@H](C)O[C@H]5[C@H](O)[C@H]3O)[C@H]3COC(=O)[C@H]23)OCO4)cc(OC)c1O` [Etoposide, reference compound]?
A: Animal weight (g) Beginning ([1]; 30 mg/kg ig × 13 qod): 21.30 g; Animal weight (g) end ([1]; 30 mg/kg ig × 13 qod): 18.18 g; Body weight of mice (g) 1 day ([1]; 30 mg/kg ig × 13 qod): 21.30 ± 0.70 g; Body weight of mice (g) 4 day ([1]; 30 mg/kg ig × 13 qod): 19.38 ± 2.22 g; Body weight of mice (g) 8 day ([1]; 30 mg/kg ig × 13 qod): 20.53 ± 1.26 g; Body weight of mice (g) 11 day ([1]; 30 mg/kg ig × 13 qod): 19.62 ± 1.15 g; Body weight of mice (g) 15 day ([1]; 30 mg/kg ig × 13 qod): 19.63 ± 1.63 g; Body weight of mice (g) 18 day ([1]; 30 mg/kg ig × 13 qod): 19.48 ± 2.01 g; Body weight of mice (g) 22 day ([1]; 30 mg/kg ig × 13 qod): 19.10 ± 2.57 g; Body weight of mice (g) 25 day ([1]; 30 mg/kg ig × 13 qod): 18.18 ± 1.86 g; Animal No. end ([1]; 30 mg/kg ig × 13 qod, 6 at beginning): 6/6; TV inhibition rate % T/C ([3]; 30 mg/kg ig × 13 qod): 40.0%; Tumor volume (mm^3) End ([3]; 30 mg/kg ig × 13 qod): 243 ± 121 mm^3; Tumor volume (mm^3) Start ([3]; 30 mg/kg ig × 13 qod): 57.42 ± 23.5 mm^3; Tumor weight (g) x ± SD ([3]; 30 mg/kg ig × 13 qod): 0.27 ± 0.15 g; Tumor inhibition rate % ([3]; 30 mg/kg ig × 13 qod, by tumor weight): 59.9%

Q: What does the source list for `CC(=O)O[C@H]1C(=O)[C@@]2(C)[C@H]([C@H](OC(=O)c3ccccc3)[C@]3(O)C[C@H](OC(=O)[C@H](O)[C@@H](NC(=O)c4ccccc4)c4ccccc4)C(C)=C1C3(C)C)[C@]1(OC(C)=O)CO[C@@H]1C[C@@H]2O` [paclitaxel]?
A: IC50 [4, 5]: > 1000 nM; IC50 ([4]; read-out: IC50): > 1000 nM

Q: Which IC50 [2] does the source give for `CC[C@]1(O)C[C@H]2CN(CCc3c([nH]c4ccccc34)[C@@](C(=O)OC)(c3cc4c(cc3OC)N(C=O)[C@H]3[C@@](O)(C(=O)OC)[C@H](OC(C)=O)[C@]5(CC)C=CCN6CC[C@]43[C@@H]65)C2)C1` [vincristine] here?
A: The IC50 was 5.05 nM.
